From patent US12722014B2, “Method of treating drug resistant hypertension and heart failure with preserved ejection fraction by combined drug treatment with baropacing and beta blockers” (BaroPace, Inc., priority 2020, dated 2026)

How the values were obtained:
[1] = Prospective study of BaroPacing (raising right atrial pacing rate) in 14 subjects with hypertension and dual chamber pacemakers; assay type: in vivo, human; conditions: 8 patients taking either Metoprolol or Carvedilol vs 6 subjects not taking any beta blockers (p<0.004 in the latter)
Description: I have prospectively studied 14 subjects with hypertension and dual chamber pacemakers, 6 not taking any beta blockers, and 8 taking either metoprolol or carvedilol. […] PressurePacing or BaroPacing is defined to include the algorithmically controlled pacing methodologies and programmable pacemakers as disclosed in PCT/US19/59703; PCT/US20/025447; PCT/US21/42622; and US Provisional filing 63/123,951, each and all incorporated herein by reference.

[2] = Published retrospective and prospective study of BaroPacing by BaroPace's clinical research team; assay type: in vivo, human; conditions: current treatment with the beta blocker
Description: Based on the observation that pacemaker implant in patients with drug resistant hypertension (DRH) and heart failure with preserved ejection fraction (HFpEF) lowers blood pressure and improves clinical outcomes, BaroPace, Inc. is developing technology to treat drug resistant hypertension and (HFpEF) by regulating cardiac pacemakers in real time in response to blood pressure (BaroPacing™). […] The BaroPacing research model offers a now-proven cost efficient means of screening ISA drugs such as pindolol and acebutolol to test this hypothesis. If proven true, besides a new patentable indication, such results could lead to a treatment paradigm shift and clinical revitalization of ISA beta blockers.

| Structure (SMILES) | significant lowering of systolic blood pressure (>10 mmHg) by BaroPacing [1] | beneficial blood pressure lowering effects of BaroPacing [2] | improvement in New York Heart Association Class seen in HFpEF with BaroPacing [2] |
| --- | --- | --- | --- |
| COc1ccccc1OCCNCC(O)COc1cccc2[nH]c3ccccc3c12 (stereo not drawn) [Carvedilol] | lost | substantially blunts | substantially blunts |
| COCCc1ccc(OCC(O)CNC(C)C)cc1 (stereo not drawn) [Metoprolol, metoprolol] | lost | substantially blunts | substantially blunts |
